# From patent US20030181436A1, “Treatment for AIDS, HIV, and other related diseases and compounds for use therewith” (priority 2001, published 2003)
# What was measured:
# Type in all cases: cell-based
# ACH-2 cells = experiment: ACH-2 assay, compound toxicity by MTS dye reduction; parameters: Y. CC / 9′. CC: unit not given here
# Method: (§1) At assay termination the assay plates were stained with the soluble tetrazolium-based dye MTS (CellTiter® Reagent, Promega) to determined cell viability and quantify compound toxicity. […] At termination of the assay 20 μL of MTS reagent was added per well. The wells were incubated for 4 h at 37° C., 5% CO2. Adhesive plate scalers were used in place of the lids, the sealed plate was inverted several times to mix the soluble formazan product and the plate was read spectrophotometrically at 490 nm with a 650 nm reference wavelength on a Molecular Devices Vmax plate reader.
# U1 and ACH-2 cells were obtained from the AIDS Research and Reference Reagent Program and maintained under standard culture conditions in RPMI 1640 supplemented with 10% fetal bovine serum (heat inactivated), supplemented with 2 mM […], 100U/ml penicillin and 100 μg/ml, streptomycin. U1 cells were derived from the histocytic leukemia cell line U937, and contain a single integrated copy (HIV IIIB) […] a cytokine and/or phorbol inducible provirus. ACH-2 cells are derived from the A3.01 T lymphoblastic cell line, and contain 2 copies of the HIV IIIB provirus, however only one is cytokine and/or phorbol inducible. Cultures were maintained in such a way as to ensure exponential growth of the populations. At the time of the assay, cells were collected by centrifugation and counted by hemacytometer. If cell viability by Trypan Blue dye exclusion was less than 70% the assay was terminated. The cells were adjusted to 5×10^4 cells/mL and 100 μL, placed in 96 well plates with 100 μL media containing a final concentration of […] TNFα and the test compound. Cultures were incubated for 3 days and supernatants harvested. Compound toxicity was determined by MTS dye reduction. Virus expression was measured by supernatant reverse transcriptasc activity.
# [1] = test system: HIV-1 attachment to HeLa CD4 LTR B-gal cells; experiment: Inhibition of attachment assay; settings: for IC50: attachment assay
# Method: (§2) The attachment assay was performed with the HeLa CD4 LTR B-gal cells available from the AIDS Research and Reference Reagent Repository. […] HeLa CD4 LTR B-gal cells express cell surface CD4 and contain an LTR B-galactosidase reporter construct. Upon infection either the Tat protein incorporated into the virion or new Tat produced following virus integration and transcription trans-activate the LTR B-gal reporter, leading to expression of the B-galactosidase enzyme. HeLa CD4 LTR B-gal cells are routinely cultured with the required selection antibiotics and scrended for mycoplasma contamination. Twenty-four h prior to initiation of the assay cells were trypsinized, counted and 1×10^4 cells placed in a 0.2 cm well in media without selection antibiotics. Media was removed and compound media placed on the cells and incubated for 15 to 30 min at 37° C. A known titer of virus was then added to the wells and the incubation continued for 1 h. At the end of the incubation the wells were washed 6 times with media and the culture continued for 48 h. At 48 h the wells were washed one time with PBS and B-galactosidase enzyme expression determined by chemiluminescence per manufacturers instructions (Tropix Gal-screen TM, Tropix, Bedford, Mass.). Compound toxicity was monitored on sister plates using MTS dye reduction. (See Tables 14 through 16 and FIGS. 21 and 22).
# HeLa CD4 LTR B-gal cells = experiment: Attachment assay, toxicity on sister plates by MTS; settings: for TC50: attachment assay
# Method: as §2, with “reduction.” for “reduction. (See Tables 14 through 16 and FIGS. 21 and 22).”
# [2] = test system: CEM-SS cells chronically infected with SK-1; experiment: Chronically infected CEM/SK-1 cell assay, cell viability by MTS
# Method: as §1
# The chronically infected CEM cells were cultured and the assay performed in RPMI 1640 supplemental with 10% Fetal Bovine Serum (heat inactivated), 2 mM L-glutamine, 100 U/mL penicillin, […] and 10 ug/mL gentamycin. On day 3 cell-free supernatants were collected and cell viability measured by MTS dye reduction.
substance,measurement,setting,value
Zinc Iodiscorbate [Compound Z],TOXICITY VALUES (MTS) MEAN,"ACH-2 cells; 0.00063 μg/ml, exp 2","0.975 O, p."
same,TOXICITY VALUES (MTS) MEAN,"ACH-2 cells; 0.002 μg/ml, exp 2","0.929 O, p."
same,TOXICITY VALUES (MTS) MEAN,"ACH-2 cells; 0.00626 μg/ml, exp 2","0.961 O, p."
same,9′. CC,"ACH-2 cells; 0.02 μg/ml, exp 2",101.1
same,TOXICITY VALUES (MTS) MEAN,"ACH-2 cells; 0.02 μg/ml, exp 2","1.006 O, p."
same,TOXICITY VALUES (MTS) MEAN,"ACH-2 cells; 0.0625 μg/ml, exp 2","0.894 O, p."
same,9′. CC,"ACH-2 cells; 0.2 μg/ml, exp 2",81.0
same,TOXICITY VALUES (MTS) MEAN,"ACH-2 cells; 0.2 μg/ml, exp 2","0.807 O, p."
same,9′. CC,"ACH-2 cells; 0.625 μg/ml, exp 2",72.2
same,TOXICITY VALUES (MTS) MEAN,"ACH-2 cells; 0.625 μg/ml, exp 2","0.718 O, p."
same,9′. CC,"ACH-2 cells; 2 μg/ml, exp 2",70.0
same,TOXICITY VALUES (MTS) MEAN,"ACH-2 cells; 2 μg/ml, exp 2","0.696 O, p."
same,9′. CC,"ACH-2 cells; 6.25 μg/ml, exp 2",40.1
same,TOXICITY VALUES (MTS) MEAN,"ACH-2 cells; 6.25 μg/ml, exp 2","0.399 O, p."
same,9′. CC,"ACH-2 cells; 20 μg/ml, exp 2",0.0
same,TOXICITY VALUES (MTS) MEAN,"ACH-2 cells; 20 μg/ml, exp 2","0.000 O, p."
same,9′. CC,"ACH-2 cells; 62.5 μg/ml, exp 2",0.0
same,TOXICITY VALUES (MTS) MEAN,"ACH-2 cells; 62.5 μg/ml, exp 2","0.000 O, p."
same,9′. CC,"ACH-2 cells; 200 μg/ml, exp 2",0.0
same,TOXICITY VALUES (MTS) MEAN,"ACH-2 cells; 200 μg/ml, exp 2","0.000 O, p."
same,TOXICITY VALUES (MTS) MEAN,"ACH-2 cells; 0.00063 μG/Ml, exp 1",1.061 O. D.
same,TOXICITY VALUES (MTS) MEAN,"ACH-2 cells; 0.002 μG/Ml [c9], exp 1",1.049 O. D.
same,TOXICITY VALUES (MTS) MEAN,"ACH-2 cells; 0.002 μG/Ml [c11], exp 1",1.081 O. D.
same,TOXICITY VALUES (MTS) MEAN,"ACH-2 cells; 0.00625 μG/Ml, exp 1",1.019 O. D.
same,TOXICITY VALUES (MTS) MEAN,"ACH-2 cells; 0.0625 μG/Ml, exp 1",0.984 O. D.
same,TOXICITY VALUES (MTS) MEAN,"ACH-2 cells; 0.2 μG/Ml, exp 1",1.002 O. D.
same,TOXICITY VALUES (MTS) MEAN,"ACH-2 cells; 0.625 μG/Ml, exp 1",0.939 O. D.
same,% CC,"ACH-2 cells; 2 μG/Ml, exp 1",88.1%
same,TOXICITY VALUES (MTS) MEAN,"ACH-2 cells; 2 μG/Ml, exp 1",0.885 O. D.
same,% CC,"ACH-2 cells; 6.25 μG/Ml, exp 1",81.8%
same,TOXICITY VALUES (MTS) MEAN,"ACH-2 cells; 6.25 μG/Ml, exp 1",0.822 O. D.
same,% CC,"ACH-2 cells; 20 μG/Ml, exp 1",85.1%
same,TOXICITY VALUES (MTS) MEAN,"ACH-2 cells; 20 μG/Ml, exp 1",0.856 O. D.
same,% CC,"ACH-2 cells; 62.5 μG/Ml, exp 1",6.3%
same,TOXICITY VALUES (MTS) MEAN,"ACH-2 cells; 62.5 μG/Ml, exp 1",0.063 O. D.
same,% CC,"ACH-2 cells; 200 μG/Ml, exp 1",1.3%
same,TOXICITY VALUES (MTS) MEAN,"ACH-2 cells; 200 μG/Ml, exp 1",0.013 O. D.
same,TC50,"ACH-2 cells; ACH2, exp 1, Table 2",ITC50 (μG/Ml) = 38.94
same,TC50,"ACH-2 cells; ACH-2, experiment 1, Table 1",39
same,TC50,"ACH-2 cells; ACH-2, experiment 2, Table 1",4.8
same,ACH2 TC50,ACH-2 cells; exp 2,4.8 µg/mL
same,ACH2 TC50,"ACH-2 cells; exp 2, listed as COMPOUND Z",TC50 (vg/mol) = 4.84 μg/ml
same,efficacy in HeLa CD4 LTR β-gal attachment assay,[1],inactive
same,% VC,[1]; 0.32 μG/Ml,90.2%
same,% VC,[1]; 1 μG/Ml,94.8%
same,% VC,[1]; 3.2 μG/Ml,74.5%
same,% VC,[1]; 10 μG/Ml,62.4%
same,% VC,[1]; 32 μG/Ml,54.4%
same,% VC,[1]; 100 μG/Ml,66.8%
same,IC50,[1],>100 µg/mL
same,IC50,[1]; listed as COMPOUND Z,IC50 (μG/mL) = >100 μg/mL
same,TOXICITY VALUES (Colt Titer) MEAN,HeLa CD4 LTR B-gal cells; 0.32 μG/Ml,0.989 O. D.
same,TOXICITY VALUES (Colt Titer) MEAN,HeLa CD4 LTR B-gal cells; 1 μG/Ml,0.989 O. D.
same,TOXICITY VALUES (Colt Titer) MEAN,HeLa CD4 LTR B-gal cells; 3.2 μG/Ml,0.989 O. D.
same,TOXICITY VALUES (Colt Titer) MEAN,HeLa CD4 LTR B-gal cells; 10 μG/Ml,0.989 O. D.
same,TOXICITY VALUES (Colt Titer) MEAN,HeLa CD4 LTR B-gal cells; 32 μG/Ml,0.989 O. D.
same,TOXICITY VALUES (Colt Titer) MEAN,HeLa CD4 LTR B-gal cells; 100 μG/Ml,0.989 O. D.
same,TC50,HeLa CD4 LTR B-gal cells,greater than 100 μg/mL
same,TC50,HeLa CD4 LTR B-gal cells; listed as COMPOUND Z,TC50 (μG/mL) + >100 μg/mL
same,TOXICITY VALUES (MTS) MEAN,[2]; 0.625 μG/Ml,1.757 O. D.
same,TOXICITY VALUES (MTS) MEAN,[2]; 2 μG/Ml,1.655 O. D.
same,% CC,[2]; 6.25 μG/Ml,35.8%
same,TOXICITY VALUES (MTS) MEAN,[2]; 6.25 μG/Ml,0.631 O. D.
same,% CC,[2]; 20 μG/Ml,31.4%
same,TOXICITY VALUES (MTS) MEAN,[2]; 20 μG/Ml,0.553 O. D.
same,% CC,[2]; 62.5 μG/Ml,17.1%
same,TOXICITY VALUES (MTS) MEAN,[2]; 62.5 μG/Ml,0.301 O. D.
same,% CC,[2]; 200 μG/Ml,0.6%
same,TOXICITY VALUES (MTS) MEAN,[2]; 200 μG/Ml,0.011 O. D.
same,TC50,[2]; CEMSK1 chronic infection,ITC50 (ug/ml) = 5.22
